18 compounds from patent US20220281819A1, “THERAPEUTIC COMPOUNDS AND METHODS OF USE” (priority 2020, published 2022) can be followed below.

Like-named read-outs stand apart in the source and are kept apart here.

Holding throughout (type): binding
The target in one assay is TEAD1 (Homo sapiens, UniProt P28347). Briefly: Lipid HTRF (TR-FRET lipid pocket probe competition), 30 min pre-incubation, TEAD1. How it is done: (§1) His-tagged TEAD proteins are pre-incubated with TEAD project compounds for 30 minutes at room temperature. Biotinylated lipid pocket probes are then added to the TEAD/Compound mixture and incubated for 60 minutes at room temperature. The lipid pocket probe competes with the test compound for the TEAD lipid pocket until equilibrium is reached. After 60 minutes, Europium labelled anti-His (Perkin Elmer #AD0110) and XL665 labelled streptavidin (CIS Bio 610SAXAC) are added to the TEAD/test compound/lipid pocket mixture and incubated for 30 minutes. […] If a TEAD lipid pocket binder such as binds and displaces the lipid pocket probe, the disruption of the TEAD:probe interaction results in a decrease in TR-FRET signal. The potency of compounds as TEAD lipid pocket binders is determined by IC50 value generated using a non-linear 4 parameter curve fit.

The next assay deals with TEAD2 (Homo sapiens, UniProt Q15562). Briefly: Lipid HTRF (TR-FRET lipid pocket probe competition), 30 min pre-incubation, TEAD2. The method, then:
as §1

The target in a further assay is TEAD3 (Homo sapiens, UniProt Q99594). As to the kind of experiment: Lipid HTRF (TR-FRET lipid pocket probe competition), 30 min pre-incubation, TEAD3. The method, then: as §1
(In TR-FRET formats the signal depends on donor and acceptor labels being close together.)

Another assay has as its target TEAD4 (Homo sapiens, UniProt Q15561). As to the kind of experiment: Lipid HTRF (TR-FRET lipid pocket probe competition), 30 min pre-incubation, TEAD4. How it is done:
as §1

Setting [1] is: His-tagged TEAD1, 30 minutes pre-incubation with compound at room temperature, read-out: Lipid HTRF TEAD1 IC50.
[2] abbreviates: His-tagged TEAD2, 30 minutes pre-incubation with compound at room temperature, read-out: Lipid HTRF TEAD2 IC50.
Where [3] appears, read: His-tagged TEAD3, 30 minutes pre-incubation with compound at room temperature, read-out: Lipid HTRF TEAD3 IC50.
[4] abbreviates: His-tagged TEAD4, 30 minutes pre-incubation with compound at room temperature, read-out: Lipid HTRF TEAD4 IC50.
The mark [5] stands for this setting: Lipid HTRF TEAD1 IC50, His-tagged TEAD1, 30 minutes pre-incubation with compound at room temperature.
[6] abbreviates: Lipid HTRF TEAD2 IC50, His-tagged TEAD2, 30 minutes pre-incubation with compound at room temperature.
Setting [7] is: Lipid HTRF TEAD3 IC50, His-tagged TEAD3, 30 minutes pre-incubation with compound at room temperature.
The mark [8] stands for this setting: Lipid HTRF TEAD4 IC50, His-tagged TEAD4, 30 minutes pre-incubation with compound at room temperature.

Chain of TEAD2 (Q15562 whole entry, species assumed): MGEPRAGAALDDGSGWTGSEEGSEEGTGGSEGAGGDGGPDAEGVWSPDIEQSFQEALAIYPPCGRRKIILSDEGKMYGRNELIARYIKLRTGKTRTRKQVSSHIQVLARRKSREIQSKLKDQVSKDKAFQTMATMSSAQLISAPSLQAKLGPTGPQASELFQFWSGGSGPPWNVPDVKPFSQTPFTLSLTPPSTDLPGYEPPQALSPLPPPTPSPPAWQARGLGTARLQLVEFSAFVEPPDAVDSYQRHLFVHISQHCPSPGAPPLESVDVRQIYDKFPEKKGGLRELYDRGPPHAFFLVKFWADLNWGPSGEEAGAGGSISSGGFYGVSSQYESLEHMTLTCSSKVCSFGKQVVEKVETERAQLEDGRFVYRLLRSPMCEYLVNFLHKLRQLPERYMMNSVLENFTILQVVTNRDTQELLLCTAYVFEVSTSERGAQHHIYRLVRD
Chain of TEAD3 (Q99594 whole entry, species assumed): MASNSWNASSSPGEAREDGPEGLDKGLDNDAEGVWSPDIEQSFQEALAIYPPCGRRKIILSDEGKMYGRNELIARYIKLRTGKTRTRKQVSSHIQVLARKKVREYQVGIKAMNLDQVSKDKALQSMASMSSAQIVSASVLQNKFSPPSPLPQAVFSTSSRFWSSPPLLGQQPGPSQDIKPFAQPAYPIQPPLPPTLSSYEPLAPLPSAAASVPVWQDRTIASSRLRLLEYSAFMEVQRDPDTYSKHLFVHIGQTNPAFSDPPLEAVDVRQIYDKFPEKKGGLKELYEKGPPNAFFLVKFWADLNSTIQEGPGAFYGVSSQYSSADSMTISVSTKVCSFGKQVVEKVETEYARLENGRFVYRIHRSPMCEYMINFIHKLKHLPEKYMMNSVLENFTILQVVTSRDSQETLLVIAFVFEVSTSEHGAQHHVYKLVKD
Chain of TEAD1 (P28347 whole entry, species assumed): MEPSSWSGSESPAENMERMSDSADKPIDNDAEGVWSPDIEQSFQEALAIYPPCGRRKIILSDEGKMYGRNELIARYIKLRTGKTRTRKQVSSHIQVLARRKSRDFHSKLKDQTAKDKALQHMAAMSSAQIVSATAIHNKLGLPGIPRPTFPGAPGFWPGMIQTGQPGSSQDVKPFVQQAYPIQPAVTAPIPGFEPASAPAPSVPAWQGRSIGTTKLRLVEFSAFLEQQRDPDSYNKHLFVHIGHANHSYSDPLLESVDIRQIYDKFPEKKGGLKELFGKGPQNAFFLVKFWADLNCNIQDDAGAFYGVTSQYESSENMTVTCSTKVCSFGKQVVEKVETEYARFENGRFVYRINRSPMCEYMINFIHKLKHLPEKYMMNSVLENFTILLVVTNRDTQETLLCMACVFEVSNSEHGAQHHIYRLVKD
Chain of TEAD4 (Q15561 whole entry, species assumed): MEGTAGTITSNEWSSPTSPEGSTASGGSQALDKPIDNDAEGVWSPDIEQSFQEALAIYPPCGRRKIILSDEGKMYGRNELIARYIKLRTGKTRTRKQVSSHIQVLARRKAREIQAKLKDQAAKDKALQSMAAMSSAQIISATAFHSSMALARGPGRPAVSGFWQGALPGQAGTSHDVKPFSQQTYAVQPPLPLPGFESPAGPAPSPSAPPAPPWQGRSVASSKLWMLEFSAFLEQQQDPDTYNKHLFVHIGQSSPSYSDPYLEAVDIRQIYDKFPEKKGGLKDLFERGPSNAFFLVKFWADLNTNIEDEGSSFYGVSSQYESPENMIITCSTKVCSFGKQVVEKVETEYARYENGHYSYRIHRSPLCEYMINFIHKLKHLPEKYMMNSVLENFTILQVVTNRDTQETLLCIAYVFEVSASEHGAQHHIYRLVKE

Consider `C=CC(=O)Nc1ccc(OC)c(/C=C/CC2CCCC2)c1` [Final product from Example 14, (E)-N-(3-(3-cyclopentylprop-1-en-1-yl)-4-methoxyphenyl)acrylamide], for which the IC50 on TEAD1 (setting [1]) was determined as 0.04 µM; at TEAD2 (setting [2]) it was 0.03 µM; on TEAD3 (setting [3]), 0.06 µM; at TEAD4 (setting [4]) it was 0.07 µM.

In the case of `C=CC(=O)N(CCO)c1cc(/C=C/[C@H]2CC[C@H](C(F)(F)F)CC2)c(OC)cn1` [Final product from Example 15, N-(2-Hydroxyethyl)-N-(5-methoxy-4-((E)-2-(trans-4-(trifluoromethyl)cyclohexyl)vinyl)pyridin-2-yl)acrylamide], the IC50 was determined as 2.2 µM at TEAD1 (setting [1]), 0.73 µM at TEAD2 (setting [2]), 4.1 µM on TEAD3 (setting [3]) and 0.34 µM at TEAD4 (setting [4]).

On to `C=CC(=O)Nc1cc(-c2ccc(C(C)C)cc2)c(OC)cc1F` [Final product from Example 16, N-(4-fluoro-4′-isopropyl-6-methoxy-[1,1′-biphenyl]-3-yl)acrylamide], for which the IC50 on TEAD1 (setting [1]) amounted to 0.14 µM; on TEAD2 (setting [2]) it was 0.54 µM; on TEAD3 (setting [3]) it was 0.09 µM; at TEAD4 (setting [4]), 0.28 µM.

Regarding `C=CC(=O)Nc1cc(/C=C/c2ccc(Cl)cc2)c2c(c1)CCO2` [Final product from Example 17, (E)-N-(7-(4-chlorostyryl)-2,3-dihydrobenzofuran-5-yl)acrylamide], the IC50 at TEAD1 (setting [1]) came to 0.71 µM; at TEAD2 (setting [2]), 1.3 µM; on TEAD3 (setting [3]), 5.3 µM; at TEAD4 (setting [4]), 0.47 µM.

In the case of `C=CC(=O)Nc1cnc(OC)c(/C=C/CC(C)C)c1` [Final product from Example 18, (E)-N-(6-methoxy-5-(4-methylpent-1-en-1-yl)pyridin-3-yl)acrylamide], the IC50 at TEAD1 (setting [1]) is 0.22 µM; at TEAD2 (setting [2]), 0.21 µM; at TEAD3 (setting [3]), 0.43 µM; at TEAD4 (setting [4]), 0.76 µM.

With `C=CC(=O)Nc1cnc(OC)c(/C=C/C2CC(F)(F)C2)c1` [Final product from Example 19, (E)-N-(5-(2-(3,3-difluorocyclobutyl)vinyl)-6-methoxypyridin-3-yl)acrylamide], the IC50 at TEAD1 (setting [1]) was found to be 1.35 µM; on TEAD2 (setting [2]), 2.55 µM; on TEAD3 (setting [3]), 3.15 µM; at TEAD4 (setting [4]), 5.75 µM.

Consider `C=C(C(=O)Nc1cnc(OC)c(/C=C/C2CCC(F)(F)CC2)c1)c1ccccc1` [Final product from Example 20, (E)-N-(5-(2-(4,4-Difluorocyclohexyl)vinyl)-6-methoxypyridin-3-yl)-2-phenylacrylamide], for which the IC50 at TEAD1 (setting [1]) worked out at 0.12 µM; on TEAD2 (setting [2]), 0.54 µM; on TEAD3 (setting [3]), 0.41 µM; at TEAD4 (setting [4]), 0.04 µM.

On to `COc1ncc(NC(=O)/C=C/C#N)cc1/C=C/C1CCC(F)(F)CC1` [Final product from Example 21, (E)-3-cyano-N-(5-((E)-2-(4,4-difluorocyclohexyl)vinyl)-6-methoxypyridin-3-yl)acrylamide], for which the IC50 on TEAD1 (setting [1]) was 0.08 µM; on TEAD2 (setting [2]), 0.36 µM; at TEAD3 (setting [3]) it was 0.16 µM; at TEAD4 (setting [4]), 0.06 µM.

In the case of `C=CC(=O)Nc1ccc(OC)c(/C=C/[C@H]2CC[C@H](C(F)(F)F)CC2)c1` [Final product from Example 22, N-(4-Methoxy-3-((E)-2-(trans-4-(trifluoromethyl)cyclohexyl)vinyl)phenyl)acrylamide], the IC50 on TEAD1 (setting [1]) worked out at 0.19 µM; at TEAD2 (setting [2]), 0.25 µM; on TEAD3 (setting [3]), 0.45 µM; on TEAD4 (setting [4]) it was 0.12 µM.

Consider `C=CC(=O)Nc1ccc(OC)c(/C=C/C2CCC(F)(F)CC2)c1` [Final product from Example 23, (E)-N-(3-(2-(4,4-Difluorocyclohexyl)vinyl)-4-methoxyphenyl)acrylamide], for which the IC50 at TEAD1 (setting [1]) came to 0.05 µM; at TEAD2 (setting [2]), 0.41 µM; on TEAD3 (setting [3]) it was 0.08 µM; on TEAD4 (setting [4]) it was 0.17 µM.

As to `C=CC(=O)Nc1cc(/C=C/[C@H]2CC[C@H](C(F)(F)F)CC2)c(OC)nc1-c1ccccc1` [Final product from Example 24, N-(6-Methoxy-2-phenyl-5-((E)-2-(trans-4-(trifluoromethyl)cyclohexyl)vinyl)pyridin-3-yl)acrylamide], the IC50 at TEAD1 (setting [1]) was 1.6 µM; on TEAD2 (setting [2]), 0.21 µM; on TEAD3 (setting [3]), over 50 µM; at TEAD4 (setting [4]), 0.56 µM.

As to `C=CC(=O)Nc1cc(/C=C/[C@H]2CC[C@H](C(F)(F)F)CC2)c(OC)nc1CO` [Final product from Example 25, N-(2-(Hydroxymethyl)-6-methoxy-5-((E)-2-(trans-4-(trifluoromethyl)cyclohexyl)vinyl)pyridin-3-yl)acrylamide], the IC50 on TEAD1 (setting [1]) was found to be 0.04 µM; on TEAD2 (setting [2]) it was 0.01 µM; on TEAD3 (setting [3]) it was 0.36 µM; at TEAD4 (setting [4]), 0.04 µM.

As for `C=CC(=O)Nc1cc(/C=C/[C@H]2CC[C@H](C(F)(F)F)CC2)c(OC)nc1OC` [Final product from Example 26, N-(2,6-Dimethoxy-5-((E)-2-(trans-4-(trifluoromethyl)cyclohexyl)vinyl)pyridin-3-yl)acrylamide], the IC50 is 0.24 µM at TEAD1 (setting [1]), 0.15 µM at TEAD2 (setting [2]), 1 µM at TEAD3 (setting [3]) and 0.08 µM on TEAD4 (setting [4]).

As to `C=CC(=O)Nc1ncc(OC)c(/C=C/C2CCC(F)(F)CC2)n1` [Final product from Example 27, (E)-N-(4-(2-(4,4-Difluorocyclohexyl)vinyl)-5-methoxypyrimidin-2-yl)acrylamide], the IC50 on TEAD1 (setting [1]) was 0.2 µM; on TEAD2 (setting [2]), 0.53 µM; at TEAD3 (setting [3]) it was 0.16 µM; at TEAD4 (setting [4]), 0.07 µM.

In the case of `C=CC(=O)Nc1cc(/C=C/[C@H]2CC[C@H](C(F)(F)F)CC2)c(OC)nc1C(N)=O` [Final product from Example 28, 3-Acrylamido-6-methoxy-5-((E)-2-(trans-4-(trifluoromethyl)cyclohexyl)vinyl) picolinamide], the IC50 was found to be 0.23 µM on TEAD1 (setting [1]), 1.4 µM on TEAD2 (setting [2]), 0.56 µM at TEAD3 (setting [3]) and 0.1 µM on TEAD4 (setting [4]).

Regarding `C=CC(=O)Nc1cc(/C=C/C2CCC(F)(F)CC2)c(C#N)cn1` [Final product from Example 29, (E)-N-(5-Cyano-4-(2-(4,4-difluorocyclohexyl)vinyl)pyridin-2-yl)acrylamide], the IC50 worked out at 0.05 µM at TEAD1 (setting [1]), 0.04 µM at TEAD2 (setting [2]), 0.04 µM at TEAD3 (setting [3]) and 0.02 µM on TEAD4 (setting [4]).

Consider `C=C(CNc1cnc(OC)c(/C=C/[C@H]2CC[C@H](C(F)(F)F)CC2)c1)C(=O)O` [Final product from Example 30, 2-(((6-methoxy-5-((E)-2-(trans-4-(trifluoromethyl)cyclohexyl)vinyl)pyridin-3-yl)amino)methyl)acrylic acid], for which the IC50 turned out to be 0.58 µM on TEAD1 (setting [5]), 0.27 µM on TEAD2 (setting [6]), 1.25 µM at TEAD3 (setting [7]) and 0.14 µM on TEAD4 (setting [8]).

As to `C=C(CNc1cnc(C#N)c(/C=C/[C@H]2CC[C@H](C(F)(F)F)CC2)c1)C(=O)O` [Final product from Example 31, 2-(((6-Cyano-5-((E)-2-(trans-4-(trifluoromethyl)cyclohexyl)vinyl)pyridin-3-yl)amino)methyl)acrylic acid], the IC50 at TEAD1 (setting [5]) was determined as 4.8 µM; at TEAD2 (setting [6]), 1.7 µM; on TEAD3 (setting [7]) it was 0.97 µM; on TEAD4 (setting [8]), 1.5 µM.

As usually defined, the IC50 is the midpoint of a concentration-inhibition curve.
